Source: patent US6579881B2 (Eisai Co., Ltd., priority 1997, dated 2003)

How the values were obtained:
[1] = biological target: T1, serotonin 1A receptor (Rattus norvegicus, UniProt P19327); experiment: Binding test on [3H] 8-hydroxy-dipropylaminotetralin (serotonin 1A receptor); conditions: [3H] 8-OH-DPAT 0.5 nM, receptor fraction of rat hippocampus; read-out: 5HT1a
T1 construct: To the receptor fraction of the hippocampus were added a test compound and 0.5 nM of [^3H]; 8-hydroxy-dipropylaminotetralin; from tissue; host or cells: SD rat hippocampus, membrane (receptor) fraction
T1 sequence (P19327 1-422): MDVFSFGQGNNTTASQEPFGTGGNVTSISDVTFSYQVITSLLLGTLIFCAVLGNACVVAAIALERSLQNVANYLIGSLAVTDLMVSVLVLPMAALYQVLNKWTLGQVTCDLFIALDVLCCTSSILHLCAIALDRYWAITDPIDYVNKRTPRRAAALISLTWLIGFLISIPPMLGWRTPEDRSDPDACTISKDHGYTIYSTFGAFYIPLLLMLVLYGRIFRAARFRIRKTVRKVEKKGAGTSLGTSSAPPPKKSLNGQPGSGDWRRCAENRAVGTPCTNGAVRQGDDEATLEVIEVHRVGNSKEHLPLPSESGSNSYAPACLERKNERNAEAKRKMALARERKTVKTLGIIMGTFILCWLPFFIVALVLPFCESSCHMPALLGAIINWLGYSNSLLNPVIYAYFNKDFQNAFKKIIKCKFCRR

[2] = biological target: serotonin 2 receptor (Rattus norvegicus, UniProt P14842); experiment: Binding test on [3H] ketanserin (serotonin 2 receptor); conditions: [3H] ketanserin 0.3 nM, receptor fraction of rat cerebral cortex; read-out: 5HT2
Sequence of serotonin 2 receptor (P14842 whole entry): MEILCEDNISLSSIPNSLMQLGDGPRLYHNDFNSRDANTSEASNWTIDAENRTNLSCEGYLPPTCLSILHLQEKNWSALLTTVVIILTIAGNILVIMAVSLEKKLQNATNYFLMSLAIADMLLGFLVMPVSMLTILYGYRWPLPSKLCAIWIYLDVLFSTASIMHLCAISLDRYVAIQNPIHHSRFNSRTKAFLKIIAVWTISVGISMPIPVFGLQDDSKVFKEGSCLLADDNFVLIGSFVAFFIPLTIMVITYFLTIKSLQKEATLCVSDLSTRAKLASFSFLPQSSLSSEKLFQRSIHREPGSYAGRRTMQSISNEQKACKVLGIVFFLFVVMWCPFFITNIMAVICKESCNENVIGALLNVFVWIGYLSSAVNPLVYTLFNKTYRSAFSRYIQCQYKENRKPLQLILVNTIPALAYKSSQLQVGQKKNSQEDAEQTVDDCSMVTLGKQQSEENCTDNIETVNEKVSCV

Molecule | Ki [1] | Ki [2]
1-[1-(4-fluorophenethyl)piperidin-4-yl]-6-(1,2,3-triazol-1-yl)methylindoline and 1-[1-(4-fluorophenethyl)piperidin-4-yl]-6-(1,2,3-triazol-2-yl)methylindoline [Example 212] | 0.82 nM | 0.36 nM
CC1CC(C2CCN(CCc3ccc(F)cc3)CC2)c2nccnc21 (mixture of isomers) [Example 266, 5-[1-(4-fluorophenethyl)piperidin-4-yl]-7-methyl-5,6-dihydro-5H-cyclopentapyrazine] | 31.6 nM | 22.6 nM
C[C@@H]1CN(CCc2ccc(F)cc2)CC[C@@H]1N1CCc2ccccc21 (relative stereo) [Example 79, cis-1-[1-(4-fluorophenethyl)-3-methylpiperidin-4-yl]indoline] | 115 nM | 26.5 nM
OC[C@@H]1CN(CCc2ccc(F)cc2)CC[C@@H]1N1CCc2ccccc21 (relative stereo) [Example 81, cis-1-[1-(4-fluorophenethyl)-3-hydroxymethylpiperidin-4-yl]indoline] | 44.3 nM | 
OC[C@H]1CN(CCc2ccc(F)cc2)CC[C@@H]1N1CCc2ccccc21 (relative stereo) [Example 82, trans-1-[1-(4-fluorophenethyl)-3-hydroxymethylpiperidin-4-yl]indoline] | 71.2 nM | 5.3 nM
CCN1CC[C@H](N2CCc3ccccc32)[C@H](COc2ccc(F)cc2)C1 (relative stereo) [Example 84, cis-1-[1-ethyl-3-(4-fluorophenoxymethyl)piperidin-4-yl]indoline] | > 200 nM | 134 nM
CCN1CC[C@H](N2CCc3ccccc32)[C@@H](COCc2ccc(F)cc2)C1 (relative stereo) [Example 85, trans-1-[1-ethyl-3-(4-fluorobenzyloxymethyl)piperidin-4-yl]indoline] | 170 nM | 56.2 nM
CCN1CCN([C@@H]2c3cc(OC)ccc3CC[C@H]2Oc2ccc(C(F)(F)F)cc2)CC1 (relative stereo) [Example 279, trans-1-(4-ethylpiperazin-1-yl)-7-methoxy-2-(4-trifluoromethylphenoxy)-1,2,3,4-tetrahydronaphthalene] | 0.22 nM | 90.4 nM
Fc1ccc(N2CCC(N3CCc4ccccc43)CC2)cc1 [Example 1, 1-[1-(4-fluorophenyl)piperidin-4-yl]indoline] | 624 nM | > 200 nM
c1ccc(CCN2CCC(N3CCc4ccccc43)CC2)cc1 [Example 3, 1-(1-phenethylpiperidin-4-yl)indoline] | 28.7 nM | 17.4 nM
Brc1ccc(CCN2CCC(N3CCc4ccccc43)CC2)cc1 [Example 4, 1-[1-(4-bromophenethyl)piperidin-4-yl]indoline] | 6 nM | 24.9 nM
Clc1cccc(CCN2CCC(N3CCc4ccccc43)CC2)c1 [Example 5, 1-[1-(3-chlorophenethyl)piperidin-4-yl]indoline] | 10.1 nM | 8.1 nM
Clc1ccc(CCN2CCC(N3CCc4ccccc43)CC2)cc1 [Example 6, 1-[1-(4-chlorophenethyl)piperidin-4-yl]indoline] | 4.5 nM | 17.4 nM
Fc1ccccc1CCN1CCC(N2CCc3ccccc32)CC1 [Example 7, 1-[1-(2-fluorophenethyl)piperidin-4-yl]indoline] | 34.3 nM | 12.8 nM
Fc1cccc(CCN2CCC(N3CCc4ccccc43)CC2)c1 [Example 8, 1-[1-(3-fluorophenethyl)piperidin-4-yl]indoline] | 13.5 nM | 26.9 nM
Fc1ccc(CCN2CCC(N3CCc4ccccc43)CC2)c(F)c1 [Example 10, 1-[1-(2,4-difluorophenethyl)piperidin-4-yl]indoline] | 8.1 nM | 6 nM
Fc1cc(F)cc(CCN2CCC(N3CCc4ccccc43)CC2)c1 [Example 12, 1-[1-(3,5-difluorophenethyl)piperidin-4-yl]indoline] | 8.5 nM | 16.3 nM
Fc1ccc(CCCCN2CCC(N3CCc4ccccc43)CC2)cc1 [Example 15, 1-[1-(4-fluorophenylbutyl)piperidin-4-yl]indoline] | 28.6 nM | 28.6 nM
Fc1ccc(CCN2CCC(CN3CCc4ccccc43)CC2)cc1 [Example 16, 1-[1-(4-fluorophenethyl)piperidin-4-yl]methylindoline] | 109 nM | 13.9 nM
Fc1ccc(CCN2CCC(CCN3CCc4ccccc43)CC2)cc1 [Example 17, 1-{2-[1-(4-fluorophenethyl)piperidin-4-yl]ethyl}indoline] | 19 nM | 16.4 nM
COc1ccc(CCN2CCC(N3CCc4ccccc43)CC2)cc1 [Example 18, 1-[1-(4-methoxyphenethyl)piperidin-4-yl]indoline] | 0.13 nM | 0.12 nM

Molecule | Ki [1] | Ki [2]
Oc1ccc(CCN2CCC(N3CCc4ccccc43)CC2)cc1 [Example 20, 1-[1-(4-hydroxyphenethyl)piperidin-4-yl]indoline] | 15.2 nM | 0.22 nM
N#Cc1ccc(CCN2CCC(N3CCc4ccccc43)CC2)cc1 [Example 21, 1-[1-(4-cyanophenethyl)piperidin-4-yl]indoline] | 1.9 nM | 42.7 nM
OCc1ccc(CCN2CCC(N3CCc4ccccc43)CC2)cc1 [Example 23, 1-[1-(4-hydroxymethylphenethyl)piperidin-4-yl]indoline] | 7.4 nM | 14.6 nM
OCCc1ccc(CCN2CCC(N3CCc4ccccc43)CC2)cc1 [Example 24, 1-{1-[4-(2-hydroxyethyl)phenethyl]piperidin-4-yl}indoline] | 26.5 nM | 174 nM
CC(O)c1ccc(CCN2CCC(N3CCc4ccccc43)CC2)cc1 (stereo not drawn) [Example 25, 1-{4-[(1-hydroxyethyl)phenethyl]piperidin-4-yl}indoline] | 8.3 nM | 13.1 nM
FC(F)(F)c1ccc(CCN2CCC(N3CCc4ccccc43)CC2)cc1 [Example 27, 1-[1-(4-trifluoromethylphenethyl)piperidin-4-yl]indoline] | > 200 nM | 28.8 nM
CS(=O)(=O)c1ccc(CCN2CCC(N3CCc4ccccc43)CC2)cc1 [Example 28, 1-[1-(4-methanesulfonylphenethyl)piperidin-4-yl]indoline] | 46.9 nM | 8.1 nM
Nc1ccc(CCN2CCC(N3CCc4ccccc43)CC2)cc1 [Example 30, 1-[1-(4-aminophenethyl)piperidin-4-yl]indoline] | 21.9 nM | 15.7 nM
CC(=O)Nc1ccc(CCN2CCC(N3CCc4ccccc43)CC2)cc1 [Example 32, 1-[1-(4-acetamidophenethyl)piperidin-4-yl]indoline] | 30.2 nM | 30.2 nM
CCNc1ccc(CCN2CCC(N3CCc4ccccc43)CC2)cc1 [Example 33, 1-[1-(4-ethylaminophenethyl)piperidin-4-yl]indoline] | 5.7 nM | 24.3 nM
NCc1ccc(CCN2CCC(N3CCc4ccccc43)CC2)cc1 [Example 35, 1-[1-(4-aminomethylphenethyl)piperidin-4-yl]indoline] | 16.6 nM | 37.6 nM
O=C(CCl)NCc1ccc(CCN2CCC(N3CCc4ccccc43)CC2)cc1 [Example 37, 1-[1-(4-chloroacetamidomethylphenethyl)piperidin-4-yl]indoline] | 4.6 nM | 14.8 nM
CCC(=O)NCc1ccc(CCN2CCC(N3CCc4ccccc43)CC2)cc1 [Example 39] | 1.6 nM | 8.9 nM
NC(=O)c1ccc(CCN2CCC(N3CCc4ccccc43)CC2)cc1 [Example 40, 1-[1-(4-carbamoylphenethyl)piperidin-4-yl]indoline] | 43.7 nM | > 200 nM
CC(C)NC(=O)Cc1ccc(CCN2CCC(N3CCc4ccccc43)CC2)cc1 [Example 41, 1-[1-(4-N-isopropylcarbamoylmethylphenethyl)piperidin-4-yl]indoline] | 19.8 nM | 5.03 nM
OCCOc1cccc(CCN2CCC(N3CCc4ccccc43)CC2)c1 [Example 43, 1-{3-[(2-hydroxyethoxy)phenethyl]piperidin-4-yl}indoline] | 4.2 nM | 37.9 nM
CN(C)CCOc1ccc(CCN2CCC(N3CCc4ccccc43)CC2)cc1 [Example 44, 1-{1-[4-(2-dimethylaminoethoxy)phenethyl]piperidin-4-yl}indoline] | 4 nM | 43.7 nM
OCc1ccc(CCN2CCC(N3CCc4ccccc43)CC2)cc1CO [Example 45, 1-{1-[3,4-di(hydroxymethyl)phenethyl]piperidin-4-yl}indoline] | 15.2 nM | 6.4 nM
c1ccc2c(c1)CCN2C1CCN(CCc2ccc3c(c2)OCO3)CC1 [Example 46, 1-{1-[3,4-(methylenedioxy)phenethyl]piperidin-4-yl}indoline] | 1.1 nM | 4.2 nM
COc1ccc2c(c1)CCN2C1CCN(CCc2ccc(F)cc2)CC1 [Example 99, 1-[1-(4-fluorophenethyl)piperidin-4-yl]-5-methoxyindoline] |  | 8.7 nM
O=C(Cc1ccc2c(c1)N(C1CCN(CCc3ccc(F)cc3)CC1)CC2)NC1CC1 [Example 154, 1-[1-(4-fluorophenethyl)piperidin-4-yl]-6-(cyclopropylcarbamoylmethyl)indoline] | 6.52 nM | 
